Measured values as given in patent publication US20260234295A1, “ULTRALOW MOLECULAR WEIGHT HEPARIN” (The University of North Carolina at Chapel Hill, priority 2022, published 2026).
Several values for one entry are separate records, joined by “and”; a condition that tells them apart may be missing. Equal values may be shown once.

What was measured:
Human FXa (Homo sapiens) = system: T1, Human FXa (Homo sapiens); assay: Anti-FXa activity, chromogenic substrate S-2765 with antithrombin; assay type: biochemical; details: for anti-FXa activity after incubation with heparanase: after heparanase digestion, digested byproduct; for IC50: human FXa, antithrombin, S-2765, read-out: anti-FXa activity, calculated IC50 (converted)
T1 construct: Human FXa (Enzyme Research Laboratories, South Bend, Indiana, United States of America); purchased Enzyme Research Laboratories
Experimental: Human FXa (Enzyme Research Laboratories, South Bend, Indiana, United States of America) was diluted in phosphate buffered saline (PBS) to 50 U/mL. Antithrombin was diluted to 0.03 mg/mL in PBS with 1 mg/mL of bovine serum albumin (BSA). The chromogenic substrate, S-2765 (Diapharma, Westchester, Ohio, United States of America) was diluted to 1 mg/mL in water. Heparin oligosaccharides were dissolved in PBS at various concentrations (7 to 3600 ng/mL). A reaction mixture including 60 μL of antithrombin and 24 μL of a solution containing a heparin oligosaccharide was incubated at room temperature for 3 min. FXa (100 μL) was then added, which was followed after a 2 min incubation at room temperature by the addition of 30 μL of chromogenic substrate, S-2765. The absorbance of the mixture was measured at 405 nm for 5 min and plotted against reaction time. The initial reaction rate as a function of oligosaccharide concentration was used to calculate IC50.

tail vein bleeding = assay: Tail vein transection bleeding time; assay type: in vivo, C57BL/6 mice
Experimental: The effect of test drug on bleeding time was assessed in a murine tail vein transection model (46). Sterile saline (n=5), HR 7-mer (12 μg/g, n=5) or enoxaparin (4 μg/g, n=7) was administered subcutaneously. Mice were anesthetized with ketamine and xylazine by intraperitoneal injection and placed on a warming mat at 37° C. Either 1 hour or 4 hours after administration of HR 7-mer or enoxaparin, respectively, the lateral tail vein was transected with a number 11 scalpel blade at a tail width of 2.3 mm and immediately submerged in PBS at 37° C. The bleeding time was determined at that instant when bleeding had ceased for 30 seconds. Animals were excluded if arterial bleeding was present.

bovine FXa = target: T2, bovine FXa; assay: ACTICHROME heparin activity assay, FXa inhibition with human antithrombin; assay type: biochemical; details: ACTICHROME kit, read-out: FXa activity, calculated 50% inhibitory concentration (IC50) (converted)
T2 construct: purchased BioMedica Diagnostics
Experimental: Data shown as mean standard deviation. Briefly, varying concentrations of HR 7-mer, enoxaparin, and fondaparinux were prepared in phosphate-buffered saline (PBS). A total of 5 microliters (μL) of each sample was added to each well, followed by the addition of 40 μL of human antithrombin for 2 minutes (min) at 37 degrees Celsius (° C.). A total of 40 μL of bovine FXa stock solution was then added and incubated for 1 min at 37° C., followed by the addition of 40 μL of chromogenic substrate sold under the tradename SPECTROZYME® FXa (BioMedica Diagnostics, Windsor, Canada). After a 5 min incubation period at 37° C., the reaction was terminated by the addition of 40 μL of glacial acetic acid. Absorbance was measured at 405 nanometers (nm) and results presented as percent inhibition of FXa activity.

[1] = system: non-occlusive venous thrombosis; assay: Murine model of non-occlusive venous thrombosis (electrolytic injury of the inferior vena cava); assay type: in vivo, C57BL/6 mice
Experimental: Heparin-based drug efficacy was evaluated in a preclinical mouse model of non-occlusive venous thrombosis (46). HR 7-mer was administered subcutaneously (12 μg/g, n=5) to male C57BL/6 mice (8-12 weeks of age) 1 hour prior to electrolytic injury and 24 hours after injury. Enoxaparin was administered subcutaneously (4 μg/g, n=5) 4 hours prior and 24 hours after electrolytic injury as a clinically relevant reference and an additional control group enrolled with saline vehicle administered subcutaneously (n=6). […] Venous side branches were ligated or cauterized, while posterior branches were left patent. A 25-gauge stainless steel needle, attached to a silver-coated copper wire was inserted into the exposed caudal vena cava and positioned against the anterior wall (anode). A second wire was implanted subcutaneously to complete the circuit (cathode) and a 250 μAmps current applied for 15 min. Subsequently, the needle was removed and a cotton swab held in gentle contact with the puncture site to prevent bleeding. The vena cava and associated thrombus, immediately below the renal veins to just above the bifurcation, was excised 48 hours after injury for determination of wet thrombus weight.

Recombinant heparanase = target: T3, Recombinant heparanase (Homo sapiens, UniProt Q9Y251); assay: Incubation of heparin oligosaccharides with recombinant heparanase, HPLC and LC-MS analysis; assay type: in vitro ADME; details: overnight incubation with heparanase, 37° C., pH 6.0
T3 construct: made in house; host or cells: insect cells (baculovirus expression system)
T3 sequence (Q9Y251 158-543 limits assumed): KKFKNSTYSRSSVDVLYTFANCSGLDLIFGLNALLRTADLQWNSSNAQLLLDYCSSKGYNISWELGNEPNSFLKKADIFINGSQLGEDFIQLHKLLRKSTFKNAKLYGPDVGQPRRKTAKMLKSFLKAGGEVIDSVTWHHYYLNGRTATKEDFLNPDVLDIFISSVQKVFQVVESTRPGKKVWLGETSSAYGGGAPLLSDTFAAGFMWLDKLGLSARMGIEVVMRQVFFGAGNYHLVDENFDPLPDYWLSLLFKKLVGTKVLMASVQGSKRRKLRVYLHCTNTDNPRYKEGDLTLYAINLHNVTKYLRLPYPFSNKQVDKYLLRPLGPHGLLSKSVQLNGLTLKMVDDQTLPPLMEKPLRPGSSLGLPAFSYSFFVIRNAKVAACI
T3 sequence (Q9Y251 36-109 limits assumed): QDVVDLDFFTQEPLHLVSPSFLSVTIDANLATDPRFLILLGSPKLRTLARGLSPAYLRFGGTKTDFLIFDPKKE
Experimental: Recombinant heparanase was expressed in insect cells using the baculovirus expression system and purified by a heparin-Sepharose column, as previously described (40). Heparin oligosaccharides, HS 6-mer (20 μg) or HR 7-mer (20 μg), were incubated overnight at 37° C. in 250 μL of MES (50 mM, pH 6.0) in the presence of heparanase (2 μg for 1× heparanase digestion, or 20 μg for 10× heparanase digestion).
High performance liquid chromatography (HPLC) analysis was conducted with a strong anion exchange column (Propac™ PA1 column, 10 μm, 9 mm×250 mm, Thermo Fisher, Waltham, MA) using a Shimadzu Prominence UFLC20A system (Shimadzu Corporation, Columbia, MD) with a UV detector set at 310 nm. A linear gradient was used for analytical purposes and included a solvent A: 20 mM NaAcO (pH 5.0); and solvent B: 2 M NaCl with 20 mM NaAcO (pH 5.0): 0-3 min: 0-80% B, 3.1-23 min: 80-100% B at a flow rate of 2 mL/min. A total of 5-10 μg of oligosaccharides was injected per run.
LC-MS/MS analysis of heparanse digested oligosaccharides was implemented on a Vanquish Flex UHPLC system (Thermo Fisher, Waltham, MA) coupled with a TSQ Fortis triple-quadrupole mass spectrometer. The ACQUITY Glycan BEH Amide column ([…], 2.1×150 mm; Waters) was used at 60° C. The mobile phase A was 50 mM ammonium formate in water (pH 4.4) and mobile phase B was acetonitrile. […]

T1 sequence (P01008 33-464): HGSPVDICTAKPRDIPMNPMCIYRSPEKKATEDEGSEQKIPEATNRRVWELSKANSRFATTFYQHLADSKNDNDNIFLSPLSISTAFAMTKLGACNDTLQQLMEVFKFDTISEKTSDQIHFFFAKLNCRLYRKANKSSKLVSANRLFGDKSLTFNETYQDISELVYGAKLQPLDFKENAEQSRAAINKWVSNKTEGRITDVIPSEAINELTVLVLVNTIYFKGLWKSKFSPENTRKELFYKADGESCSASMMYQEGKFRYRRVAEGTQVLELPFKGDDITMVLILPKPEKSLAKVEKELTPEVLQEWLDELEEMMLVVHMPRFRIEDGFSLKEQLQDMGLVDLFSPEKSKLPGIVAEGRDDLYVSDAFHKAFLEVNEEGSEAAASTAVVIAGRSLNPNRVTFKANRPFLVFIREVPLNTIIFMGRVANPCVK
T2 sequence (P01008 33-464): as above

| SMILES | anti-FXa activity after incubation with heparanase (Human FXa (Homo sapiens)) | IC50 (Human FXa (Homo sapiens)) | bleeding time (tail vein bleeding; enoxaparin 4 μg/g SC, 4 hours, HR 7-mer 12 μg/g SC, 1 hour, saline vehicle 81±3 sec) | Avg. bleeding time (tail vein bleeding; enoxaparin 4 μg/g, 4 hr pre, SC, HR 7-mer 12 μg/g, 1 hr pre) | IC50 (bovine FXa) | reduction in thrombus formation as compared to saline vehicle ([1]; 48 hours after injury, HR 7-mer 12 μg/g SC 1 hour prior and 24 hours after, enoxaparin 4 μg/g SC 4 hours prior and 24 hours after) | Avg. IVC weight ([1]; wet thrombus weight 48 hours after injury, enoxaparin 4 μg/g, 4 hr pre, SC, HR 7-mer 12 μg/g, 1 hr pre, SC) | susceptibility to heparanase mediated degradation (HPLC, LC-MS) (Recombinant heparanase) |
| --- | --- | --- | --- | --- | --- | --- | --- | --- |
| O=C(O)C1OC(Oc2ccc([N+](=O)[O-])cc2)C(O)C(O)C1OC1OC(COS(=O)(=O)O)C(OC2OC(C(=O)O)C(OC3OC(COS(=O)(=O)O)C(OC4OC(C(=O)O)C(OC5OC(COS(=O)(=O)O)C(O)C(O)C5NS(=O)(=O)O)C(O)C4OS(=O)(=O)O)C(OS(=O)(=O)O)C3NS(=O)(=O)O)C(O)C2OS(=O)(=O)O)C(O)C1NS(=O)(=O)O (stereo not drawn) [Compound 6-mer-D] | preservation of anti-FXa activity | 193 nM | – | – | – | – | – | – |
| O=C(O)C1OC(OC2C(COS(=O)(=O)O)OC(OC3C(C(=O)O)OC(OC4C(COS(=O)(=O)O)OC(OC5C(C(=O)O)OC(OC6C(COS(=O)(=O)O)OC(OC7C(C(=O)O)OC(Oc8ccc([N+](=O)[O-])cc8)C(O)C7O)C(NS(=O)(=O)O)C6O)C(OS(=O)(=O)O)C5O)C(NS(=O)(=O)O)C4OS(=O)(=O)O)C(OS(=O)(=O)O)C3O)C(NS(=O)(=O)O)C2O)C(O)C(O)C1O (stereo not drawn) [HR 7-mer] | – | 95.7 nM and 96 nM | 143 ± 18 s | 143 ± 18 s | 3870 nM | 40.3±3.9% | 18.8 ± 1.2 mg | loss of GlcA |
| O=C(O)C1OC(OC2C(COS(=O)(=O)O)OC(OC3C(C(=O)O)OC(OC4C(COS(=O)(=O)O)OC(OC5C(C(=O)O)OC(Oc6ccc([N+](=O)[O-])cc6)C(O)C5O)C(NS(=O)(=O)O)C4O)C(OS(=O)(=O)O)C3O)C(NS(=O)(=O)O)C2OS(=O)(=O)O)C(O)C(O)C1OC1OC(COS(=O)(=O)O)C(O)C(O)C1NS(=O)(=O)O (stereo not drawn) [HS 6-mer, reference compound] | completely lost | 21.2 nM and 21 nM | – | – | – | – | – | cleavage of the -[GlcA-GlcNS3S6S]- disaccharide to afford a tetrasaccharide (4-mer-D) |
